In patent US9573911B2, “Diphosphate mimetics and uses thereof” (President and Fellows of Harvard College, priority 2011, dated 2017):
Where two headings read alike, the source gives them in different places.

Legend:
Assay type in all cases: biochemical
[1] = target: T1, OGT (Homo sapiens, UniProt O15294); assay: IC50 assay, OGT peptide-capture assay
T1 construct: hOGT4.5 construct (spanning residues 313-1031 based on the numbering of the full length human protein); made in house
T1 sequence (O15294 313-1031 isoform O15294-3): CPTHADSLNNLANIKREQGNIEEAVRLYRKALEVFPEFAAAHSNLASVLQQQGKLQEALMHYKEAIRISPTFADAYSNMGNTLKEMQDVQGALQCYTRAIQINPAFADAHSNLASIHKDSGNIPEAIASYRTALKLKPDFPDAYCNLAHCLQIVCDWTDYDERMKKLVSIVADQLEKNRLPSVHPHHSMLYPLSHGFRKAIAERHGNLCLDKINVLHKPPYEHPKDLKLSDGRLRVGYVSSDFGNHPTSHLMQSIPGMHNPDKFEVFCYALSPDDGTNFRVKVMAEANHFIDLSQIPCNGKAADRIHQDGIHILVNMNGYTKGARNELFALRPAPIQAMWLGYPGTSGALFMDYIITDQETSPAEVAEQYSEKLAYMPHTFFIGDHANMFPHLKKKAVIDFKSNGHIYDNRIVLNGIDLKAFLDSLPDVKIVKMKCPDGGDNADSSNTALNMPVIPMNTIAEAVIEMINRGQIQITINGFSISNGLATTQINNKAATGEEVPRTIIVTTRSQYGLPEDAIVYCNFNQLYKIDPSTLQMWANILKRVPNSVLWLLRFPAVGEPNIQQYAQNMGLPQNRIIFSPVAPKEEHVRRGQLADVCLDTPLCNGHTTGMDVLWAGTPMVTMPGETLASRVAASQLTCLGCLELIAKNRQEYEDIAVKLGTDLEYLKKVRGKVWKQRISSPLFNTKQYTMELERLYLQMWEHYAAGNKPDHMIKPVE
Protocol: IC50 Assay of Thiocarbamate to OGT.
Enzyme activity was tested with the peptide-capture assay in the presence of different concentrations of each compound as previously reported (J. Am. Chem. Soc. 2005, 127, 14588-14589).

[2] = target: T2, ADRBK1 (GRK2) (Homo sapiens, UniProt P25098); assay: Kinase profiling, Invitrogen Z'-LYTE
T2 construct: purchased Invitrogen
T2 sequence (P25098 1-689): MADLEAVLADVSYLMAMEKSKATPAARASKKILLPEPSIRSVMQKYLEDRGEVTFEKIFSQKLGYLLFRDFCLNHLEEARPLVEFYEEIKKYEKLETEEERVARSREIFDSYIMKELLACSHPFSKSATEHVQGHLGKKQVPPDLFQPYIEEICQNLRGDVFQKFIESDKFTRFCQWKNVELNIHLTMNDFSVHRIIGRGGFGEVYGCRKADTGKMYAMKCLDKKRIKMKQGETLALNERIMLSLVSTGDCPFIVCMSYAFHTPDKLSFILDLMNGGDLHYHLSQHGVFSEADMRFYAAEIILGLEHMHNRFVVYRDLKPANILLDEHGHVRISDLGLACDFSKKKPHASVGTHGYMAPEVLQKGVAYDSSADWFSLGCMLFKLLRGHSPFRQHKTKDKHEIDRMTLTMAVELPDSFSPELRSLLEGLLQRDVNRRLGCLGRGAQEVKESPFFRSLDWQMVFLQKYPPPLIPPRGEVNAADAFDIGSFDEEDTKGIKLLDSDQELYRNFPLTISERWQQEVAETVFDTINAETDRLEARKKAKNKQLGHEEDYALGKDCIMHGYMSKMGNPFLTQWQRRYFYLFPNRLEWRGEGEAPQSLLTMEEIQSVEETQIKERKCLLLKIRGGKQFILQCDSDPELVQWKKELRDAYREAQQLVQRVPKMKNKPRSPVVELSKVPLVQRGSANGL
Protocol: (§1) Kinase profiling was conducted using Invitrogen Z'-LYTE screening protocol and assay conditions found at www.invitrogen.com. Compound (2) inhibited PLK1 completely at 5 μM.
(§2) A further kinase screen was performed on Compounds (2), (4A), and (4B) using the assay described above.

[3] = target: T3, PLK1 (Homo sapiens, UniProt P53350); assay: Kinase profiling, Invitrogen Z'-LYTE; conditions: for % Inhibition Point 1 / % Inhibition Point 2 / % Inhibition mean / inhibition at 5 µM: PLK1; for % Inhibition Point 1 / % Inhibition Point 2 / % Inhibition mean: Table 3 further screen; for inhibition at 5 µM: Table 2
T3 construct: purchased Invitrogen
Protocol: as §1, §2

[4] = target: T4, CSNK1G3 (CK1 gamma 3) (Homo sapiens, UniProt Q9Y6M4); assay: Further kinase screen, Invitrogen Z'-LYTE; conditions: Table 3
T4 construct: purchased Invitrogen
Protocol: as §1, §2

[5] = target: T5, GRK6 (Homo sapiens, UniProt P43250); assay: Further kinase screen, Invitrogen Z'-LYTE; conditions: Table 3
T5 construct: purchased Invitrogen
Protocol: as §1, §2

[6] = target: T6, GSK3B (GSK3 beta) (Homo sapiens, UniProt P49841); assay: Further kinase screen, Invitrogen Z'-LYTE; conditions: Table 3
T6 construct: purchased Invitrogen
Protocol: as §1, §2

[7] = target: T7, MAPKAPK2 (Homo sapiens, UniProt P49137); assay: Further kinase screen, Invitrogen Z'-LYTE; conditions: Table 3
T7 construct: purchased Invitrogen
Protocol: as §1, §2

[8] = target: T8, RPS6KA5 (MSK1) (Homo sapiens, UniProt O75582); assay: Further kinase screen, Invitrogen Z'-LYTE; conditions: Table 3
T8 construct: purchased Invitrogen
Protocol: as §1, §2

[9] = target: T9, SGK (SGK1) (Homo sapiens, UniProt O00141); assay: Further kinase screen, Invitrogen Z'-LYTE; conditions: Table 3
T9 construct: purchased Invitrogen
T9 sequence (O00141 1-431): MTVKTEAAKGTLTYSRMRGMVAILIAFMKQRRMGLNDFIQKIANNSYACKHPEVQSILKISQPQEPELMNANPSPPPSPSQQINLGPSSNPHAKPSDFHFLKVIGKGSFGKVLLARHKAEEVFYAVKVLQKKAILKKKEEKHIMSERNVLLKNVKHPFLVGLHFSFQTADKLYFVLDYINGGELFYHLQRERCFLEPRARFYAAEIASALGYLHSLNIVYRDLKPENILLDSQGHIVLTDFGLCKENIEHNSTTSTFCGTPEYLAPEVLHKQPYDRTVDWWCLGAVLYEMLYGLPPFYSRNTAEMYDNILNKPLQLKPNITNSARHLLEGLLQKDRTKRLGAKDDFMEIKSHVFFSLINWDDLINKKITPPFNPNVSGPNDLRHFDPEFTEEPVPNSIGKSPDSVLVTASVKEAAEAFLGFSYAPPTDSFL
Protocol: as §1, §2

[10] = target: T10, TYK2 (Homo sapiens, UniProt P29597); assay: Further kinase screen, Invitrogen Z'-LYTE; conditions: Table 3
T10 construct: purchased Invitrogen
Protocol: as §1, §2

[11] = peptide-capture assay, different concentrations of each compound, read-out: IC50 Values

T10 sequence (P29597 whole entry): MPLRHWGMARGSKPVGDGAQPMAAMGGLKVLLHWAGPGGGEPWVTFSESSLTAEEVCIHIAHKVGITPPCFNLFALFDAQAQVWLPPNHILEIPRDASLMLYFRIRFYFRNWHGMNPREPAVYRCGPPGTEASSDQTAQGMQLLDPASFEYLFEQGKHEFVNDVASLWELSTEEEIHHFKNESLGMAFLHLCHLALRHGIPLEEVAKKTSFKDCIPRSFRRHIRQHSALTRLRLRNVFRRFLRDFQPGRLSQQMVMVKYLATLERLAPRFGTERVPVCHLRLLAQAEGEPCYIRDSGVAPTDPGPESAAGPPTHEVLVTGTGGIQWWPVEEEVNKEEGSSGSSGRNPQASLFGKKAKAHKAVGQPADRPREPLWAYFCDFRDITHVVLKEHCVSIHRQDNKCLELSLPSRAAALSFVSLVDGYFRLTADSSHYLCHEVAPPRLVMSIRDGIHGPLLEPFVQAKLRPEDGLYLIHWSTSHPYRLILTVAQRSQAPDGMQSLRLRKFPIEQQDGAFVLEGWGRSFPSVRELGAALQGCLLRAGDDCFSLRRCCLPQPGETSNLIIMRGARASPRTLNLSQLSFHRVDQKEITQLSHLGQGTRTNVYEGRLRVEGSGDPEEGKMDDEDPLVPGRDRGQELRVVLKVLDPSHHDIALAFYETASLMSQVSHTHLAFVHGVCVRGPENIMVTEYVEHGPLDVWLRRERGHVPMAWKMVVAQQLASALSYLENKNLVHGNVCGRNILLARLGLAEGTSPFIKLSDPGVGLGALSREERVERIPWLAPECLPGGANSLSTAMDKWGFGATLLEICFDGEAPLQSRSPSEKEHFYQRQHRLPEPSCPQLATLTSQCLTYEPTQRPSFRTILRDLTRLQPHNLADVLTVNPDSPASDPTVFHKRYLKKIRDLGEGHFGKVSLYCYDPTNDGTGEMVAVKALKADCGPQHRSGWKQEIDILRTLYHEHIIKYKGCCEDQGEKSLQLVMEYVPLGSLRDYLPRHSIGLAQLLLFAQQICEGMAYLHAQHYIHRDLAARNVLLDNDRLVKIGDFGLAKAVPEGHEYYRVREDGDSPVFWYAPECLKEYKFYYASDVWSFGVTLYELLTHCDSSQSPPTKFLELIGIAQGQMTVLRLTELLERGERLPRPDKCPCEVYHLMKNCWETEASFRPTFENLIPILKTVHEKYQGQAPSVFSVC
T6 sequence (P49841 whole entry): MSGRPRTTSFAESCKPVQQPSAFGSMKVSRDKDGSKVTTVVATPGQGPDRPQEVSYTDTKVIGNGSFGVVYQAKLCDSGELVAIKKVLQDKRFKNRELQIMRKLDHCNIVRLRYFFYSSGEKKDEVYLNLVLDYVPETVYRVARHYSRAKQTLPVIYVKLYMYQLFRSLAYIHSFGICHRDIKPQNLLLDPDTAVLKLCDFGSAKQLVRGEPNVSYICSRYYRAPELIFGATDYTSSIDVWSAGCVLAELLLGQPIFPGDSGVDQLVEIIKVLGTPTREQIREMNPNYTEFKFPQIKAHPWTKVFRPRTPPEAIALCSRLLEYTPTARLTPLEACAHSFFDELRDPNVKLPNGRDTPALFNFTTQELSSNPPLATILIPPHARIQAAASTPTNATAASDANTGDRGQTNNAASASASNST
T8 sequence (O75582 whole entry): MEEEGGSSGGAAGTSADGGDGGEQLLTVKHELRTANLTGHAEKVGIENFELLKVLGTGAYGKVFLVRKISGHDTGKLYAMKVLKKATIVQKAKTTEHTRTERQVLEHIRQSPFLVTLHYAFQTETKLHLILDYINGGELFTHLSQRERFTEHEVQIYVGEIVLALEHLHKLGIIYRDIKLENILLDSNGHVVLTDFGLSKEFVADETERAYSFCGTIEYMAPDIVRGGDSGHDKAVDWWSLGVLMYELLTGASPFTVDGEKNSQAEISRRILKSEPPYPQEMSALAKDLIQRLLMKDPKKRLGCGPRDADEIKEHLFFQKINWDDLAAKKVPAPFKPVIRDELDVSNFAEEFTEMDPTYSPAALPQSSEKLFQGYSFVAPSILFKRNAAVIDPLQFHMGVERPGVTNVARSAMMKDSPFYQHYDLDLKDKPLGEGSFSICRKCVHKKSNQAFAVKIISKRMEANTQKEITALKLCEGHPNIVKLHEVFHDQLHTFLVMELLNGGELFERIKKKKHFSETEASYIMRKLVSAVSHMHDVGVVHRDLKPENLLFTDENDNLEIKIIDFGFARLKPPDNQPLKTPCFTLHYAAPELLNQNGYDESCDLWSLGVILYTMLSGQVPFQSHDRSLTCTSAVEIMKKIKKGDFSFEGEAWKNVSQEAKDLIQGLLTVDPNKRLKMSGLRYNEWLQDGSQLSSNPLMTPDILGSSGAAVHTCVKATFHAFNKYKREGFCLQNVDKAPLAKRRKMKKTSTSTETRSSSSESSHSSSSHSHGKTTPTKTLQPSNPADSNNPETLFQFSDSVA
T3 sequence (P53350 whole entry): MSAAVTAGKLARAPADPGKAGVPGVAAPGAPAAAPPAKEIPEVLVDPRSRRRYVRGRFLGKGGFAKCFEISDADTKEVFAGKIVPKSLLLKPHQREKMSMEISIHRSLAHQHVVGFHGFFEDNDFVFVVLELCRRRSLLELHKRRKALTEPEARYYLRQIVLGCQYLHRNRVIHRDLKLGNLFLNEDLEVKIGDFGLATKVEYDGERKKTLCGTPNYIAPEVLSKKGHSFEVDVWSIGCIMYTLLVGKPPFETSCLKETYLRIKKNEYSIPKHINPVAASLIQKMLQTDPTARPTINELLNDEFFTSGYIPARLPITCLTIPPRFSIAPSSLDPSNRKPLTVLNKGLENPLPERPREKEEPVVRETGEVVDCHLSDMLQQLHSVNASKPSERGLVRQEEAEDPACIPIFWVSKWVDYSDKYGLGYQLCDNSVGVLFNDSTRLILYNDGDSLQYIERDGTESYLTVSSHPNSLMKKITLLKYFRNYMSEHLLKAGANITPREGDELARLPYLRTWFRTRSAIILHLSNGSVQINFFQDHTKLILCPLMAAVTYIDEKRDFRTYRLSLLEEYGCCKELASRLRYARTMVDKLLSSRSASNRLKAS
T4 sequence (Q9Y6M4 whole entry): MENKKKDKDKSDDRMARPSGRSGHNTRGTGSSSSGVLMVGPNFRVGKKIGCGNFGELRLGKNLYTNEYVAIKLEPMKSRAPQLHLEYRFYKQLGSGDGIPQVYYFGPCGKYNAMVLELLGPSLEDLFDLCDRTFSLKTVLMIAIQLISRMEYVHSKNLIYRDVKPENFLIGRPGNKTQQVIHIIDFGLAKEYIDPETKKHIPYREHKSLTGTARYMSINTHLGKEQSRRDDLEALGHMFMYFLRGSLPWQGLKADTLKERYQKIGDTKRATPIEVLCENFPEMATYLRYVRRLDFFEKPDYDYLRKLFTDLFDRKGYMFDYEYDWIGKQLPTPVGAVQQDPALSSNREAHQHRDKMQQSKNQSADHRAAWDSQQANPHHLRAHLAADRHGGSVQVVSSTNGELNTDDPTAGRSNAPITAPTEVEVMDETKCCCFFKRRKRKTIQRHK
T5 sequence (P43250 whole entry): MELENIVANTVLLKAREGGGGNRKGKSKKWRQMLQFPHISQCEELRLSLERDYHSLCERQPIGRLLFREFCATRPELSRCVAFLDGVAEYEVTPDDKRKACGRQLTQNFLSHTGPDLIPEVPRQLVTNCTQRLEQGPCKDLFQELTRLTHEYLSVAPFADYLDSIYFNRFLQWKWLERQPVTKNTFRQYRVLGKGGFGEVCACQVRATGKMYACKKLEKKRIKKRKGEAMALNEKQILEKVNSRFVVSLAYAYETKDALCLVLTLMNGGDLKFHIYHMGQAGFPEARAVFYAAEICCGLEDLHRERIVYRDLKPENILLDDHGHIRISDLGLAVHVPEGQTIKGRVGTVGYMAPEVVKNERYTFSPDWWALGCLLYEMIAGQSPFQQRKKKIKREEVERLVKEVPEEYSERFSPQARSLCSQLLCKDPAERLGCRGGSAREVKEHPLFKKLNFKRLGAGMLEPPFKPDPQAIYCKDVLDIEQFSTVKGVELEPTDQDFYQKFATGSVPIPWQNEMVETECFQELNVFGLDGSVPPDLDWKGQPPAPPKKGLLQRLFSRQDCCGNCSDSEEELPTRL
T7 sequence (P49137 whole entry): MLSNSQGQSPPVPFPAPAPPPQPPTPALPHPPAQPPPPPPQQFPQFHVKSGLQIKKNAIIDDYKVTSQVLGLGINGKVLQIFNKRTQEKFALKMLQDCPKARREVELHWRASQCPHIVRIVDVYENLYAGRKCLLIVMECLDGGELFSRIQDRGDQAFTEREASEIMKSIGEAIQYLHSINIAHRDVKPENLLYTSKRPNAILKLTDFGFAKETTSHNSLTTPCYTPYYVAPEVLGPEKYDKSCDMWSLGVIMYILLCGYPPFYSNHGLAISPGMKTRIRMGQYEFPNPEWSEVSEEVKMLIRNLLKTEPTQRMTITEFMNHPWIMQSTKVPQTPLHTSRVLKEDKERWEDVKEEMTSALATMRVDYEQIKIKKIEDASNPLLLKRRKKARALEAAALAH

Row | Structure (SMILES) | IC50 [1, 11] | % Inhibition Point 1 ([2]; Table 3 further screen) | % Inhibition Point 2 ([2]; Table 3 further screen) | % Inhibition mean ([2]; Table 3 further screen) | % Inhibition Point 1 [3] | % Inhibition Point 2 [3] | % Inhibition mean [3] | % Inhibition Point 1 [4] | % Inhibition Point 2 [4] | % Inhibition mean [4] | % Inhibition Point 1 [5] | % Inhibition Point 2 [5] | % Inhibition mean [5] | % Inhibition Point 1 [6] | % Inhibition Point 2 [6] | % Inhibition mean [6] | % Inhibition Point 1 [7] | % Inhibition Point 2 [7] | % Inhibition mean [7] | % Inhibition Point 1 [8] | also measured
1 | COc1ccc(OC(=O)n2c(=S)oc3cc(C(C)=O)ccc32)cc1 [Compound 4B] | ~100 µM | 7% | 6% | 7% | 98% | 101% | 100% | 51% | 48% | 49% | 71% | 71% | 71% | 92% | 93% | 93% | 90% | 90% | 90% | 49% | % Inhibition Point 2 [8]: 48%; % Inhibition mean [8]: 49%; % Inhibition Point 1 [9]: 72%; % Inhibition Point 2 [9]: 73%; % Inhibition mean [9]: 73%; % Inhibition Point 1 [10]: 17%; % Inhibition Point 2 [10]: 21%; % Inhibition mean [10]: 19%
2 | COc1ccc(OC(=O)n2c(=O)oc3cc(C(C)=O)ccc32)cc1 [Compound 2] | 2 µM | 4% | 7% | 5% | 101% | 101% | 101% | 13% | 16% | 14% | 14% | 17% | 16% | −7% | 0% | −4% | 0% | −10% | −5% | −215% | IC50 ([1]; read-out: apparent IC50): 1.6 ± 1.1 µM; % Inhibition Point 1 ([2]; Table 2): 2%; % Inhibition Point 2 ([2]; Table 2): 5%; % Inhibition mean ([2]; Table 2): 4%; PLK1 inhibition ([3]; 5 μM): completely; inhibition at 5 µM ([3]; 5 μM, read-out: % Inhibition Point 1): 104%; inhibition at 5 µM ([3]; 5 μM, read-out: % Inhibition Point 2): 104%; inhibition at 5 µM ([3]; 5 μM, read-out: % Inhibition mean): 104%; % Inhibition Point 2 [8]: −231%; % Inhibition mean [8]: −223%; % Inhibition Point 1 [9]: −234%; % Inhibition Point 2 [9]: −237%; % Inhibition mean [9]: −236%; % Inhibition Point 1 [10]: −98%; % Inhibition Point 2 [10]: −99%; % Inhibition mean [10]: −99%
3 | COc1ccc(OC(=S)n2c(=O)oc3cc(C(C)=O)ccc32)cc1 [Compound 4A] | 14 µM | 3% | 7% | 5% | 70% | 65% | 68% | 30% | 31% | 31% | 42% | 43% | 42% | 61% | 60% | 60% | 48% | 53% | 51% | 35% | % Inhibition Point 2 [8]: 32%; % Inhibition mean [8]: 33%; % Inhibition Point 1 [9]: 76%; % Inhibition Point 2 [9]: 75%; % Inhibition mean [9]: 76%; % Inhibition Point 1 [10]: 7%; % Inhibition Point 2 [10]: 11%; % Inhibition mean [10]: 9%
